Assay results reported in PMC10945555, “Improving Activity of New Arylurea Agents against Multidrug-Resistant and Biofilm-Producing Staphylococcus epidermidis” (ACS Medicinal Chemistry Letters, 2024).
In brackets after ≈: the same amount, converted by molar mass. Read-outs that look alike come from different tables or passages of the source.

What was measured:
[1] = system: clinical MDR Staphylococcus epidermidis isolates; test: MIC, broth microdilution, 81 clinical MDR strains; type: cell-based; conditions: Staphylococcus epidermidis
Outline: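 MICs were determined by twofold broth microdilution in cation-adjusted Mueller-Hinton II broth per EUCAST, over 50–0.1 µg/mL, in duplicate. Compounds were tested as free bases dissolved in DMSO; MIC50 and MIC90 were derived across the 81 clinical MDR S. epidermidis strains.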

[2] = system: Staphylococcus aureus ATCC BAA-976; test: MIC, broth microdilution, MDR/BPSA reference strain; type: cell-based; conditions: ATCCBAA976; Staphylococcus aureus ATCC BAA-976; read-out: MIC MDR/BPSA
Outline: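 Compounds tested as free bases dissolved in DMSO (1 mg/mL stock); determinations done twice; linezolid as positive control.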

Compound: O=S(=O)(NC1CCN(CCC(Oc2ccc(C(F)(F)F)cc2)c2cccs2)CC1)c1cccc(Br)c1 (stereo not shown) [Compound 18]
- MIC ([1]; clinical strain 1 (Table S2), read-out: MIC): 0.8 µg/mL (≈ 1.33 µM)
- MIC ([1]; clinical strain 2 (Table S2), read-out: MIC): 3.12 µg/mL (≈ 5.18 µM)
- MIC ([1]; clinical strain 3 (Table S2), read-out: MIC): 6.25 µg/mL (≈ 10.4 µM)
- MIC ([1]; clinical strain 4 (Table S2), read-out: MIC): 50 µg/mL (≈ 82.8 µM)
- MIC ([1]; clinical strain 5 (Table S2), read-out: MIC): 1.6 µg/mL (≈ 2.65 µM)
- MIC ([1]; clinical strain 6 (Table S2), read-out: MIC): 12.5 µg/mL (≈ 20.7 µM)
- MIC ([1]; clinical strain 7 (Table S2), read-out: MIC): 25 µg/mL (≈ 41.4 µM)
- MIC ([1]; clinical strain 8 (Table S2), read-out: MIC): 3.12 µg/mL (≈ 5.18 µM)
- MIC ([1]; clinical strain 9 (Table S2), read-out: MIC): 50 µg/mL (≈ 82.8 µM)
- MIC ([1]; clinical strain 10 (Table S2), read-out: MIC): 50 µg/mL (≈ 82.8 µM)
- MIC ([1]; clinical strain 11 (Table S2), read-out: MIC): 6.25 µg/mL (≈ 10.4 µM)
- MIC ([1]; clinical strain 12 (Table S2), read-out: MIC): 12.5 µg/mL (≈ 20.7 µM)
- MIC ([1]; clinical strain 13 (Table S2), read-out: MIC): 12.5 µg/mL (≈ 20.7 µM)
- MIC ([1]; clinical strain 14 (Table S2), read-out: MIC): 50 µg/mL (≈ 82.8 µM)
- MIC ([1]; clinical strain 15 (Table S2), read-out: MIC): 50 µg/mL (≈ 82.8 µM)
- MIC ([1]; clinical strain 16 (Table S2), read-out: MIC): 50 µg/mL (≈ 82.8 µM)
- MIC ([1]; clinical strain 17 (Table S2), read-out: MIC): 12.5 µg/mL (≈ 20.7 µM)
- MIC ([1]; clinical strain 18 (Table S2), read-out: MIC): 50 µg/mL (≈ 82.8 µM)
- MIC ([1]; clinical strain 19 (Table S2), read-out: MIC): 6.25 µg/mL (≈ 10.4 µM)
- MIC ([1]; clinical strain 20 (Table S2), read-out: MIC): 3.12 µg/mL (≈ 5.18 µM)
- MIC ([1]; clinical strain 21 (Table S2), read-out: MIC): 3.12 µg/mL (≈ 5.18 µM)
- MIC ([1]; clinical strain 22 (Table S2), read-out: MIC): 3.12 µg/mL (≈ 5.18 µM)
- MIC ([1]; clinical strain 23 (Table S2), read-out: MIC): 0.8 µg/mL (≈ 1.33 µM)
- MIC ([1]; clinical strain 24 (Table S2), read-out: MIC): 3.12 µg/mL (≈ 5.18 µM)
- MIC ([1]; clinical strain 25 (Table S2), read-out: MIC): 6.25 µg/mL (≈ 10.4 µM)
- MIC ([1]; clinical strain 26 (Table S2), read-out: MIC): 50 µg/mL (≈ 82.8 µM)
- MIC ([1]; clinical strain 27 (Table S2), read-out: MIC): 0.8 µg/mL (≈ 1.33 µM)
- MIC ([1]; clinical strain 28 (Table S2), read-out: MIC): 50 µg/mL (≈ 82.8 µM)
- MIC ([1]; clinical strain 29 (Table S2), read-out: MIC): 50 µg/mL (≈ 82.8 µM)
- MIC ([1]; clinical strain 30 (Table S2), read-out: MIC): 50 µg/mL (≈ 82.8 µM)
- MIC ([1]; clinical strain 31 (Table S2), read-out: MIC): 50 µg/mL (≈ 82.8 µM)
- MIC ([1]; clinical strain 32 (Table S2), read-out: MIC): 50 µg/mL (≈ 82.8 µM)
- MIC ([1]; clinical strain 33 (Table S2), read-out: MIC): 50 µg/mL (≈ 82.8 µM)
- MIC ([1]; clinical strain 34 (Table S2), read-out: MIC): 50 µg/mL (≈ 82.8 µM)
- MIC ([1]; clinical strain 35 (Table S2), read-out: MIC): 1.6 µg/mL (≈ 2.65 µM)
- MIC ([1]; clinical strain 36 (Table S2), read-out: MIC): 50 µg/mL (≈ 82.8 µM)
- MIC ([1]; clinical strain 37 (Table S2), read-out: MIC): 50 µg/mL (≈ 82.8 µM)
- MIC ([1]; clinical strain 38 (Table S2), read-out: MIC): 50 µg/mL (≈ 82.8 µM)
- MIC ([1]; clinical strain 39 (Table S2), read-out: MIC): 50 µg/mL (≈ 82.8 µM)
- MIC ([1]; clinical strain 40 (Table S2), read-out: MIC): 50 µg/mL (≈ 82.8 µM)
- MIC ([1]; clinical strain 41 (Table S2), read-out: MIC): 6.25 µg/mL (≈ 10.4 µM)
- MIC ([1]; clinical strain 42 (Table S2), read-out: MIC): 1.6 µg/mL (≈ 2.65 µM)
- MIC ([1]; clinical strain 43 (Table S2), read-out: MIC): 1.6 µg/mL (≈ 2.65 µM)
- MIC ([1]; clinical strain 44 (Table S2), read-out: MIC): 50 µg/mL (≈ 82.8 µM)
- MIC ([1]; clinical strain 45 (Table S2), read-out: MIC): 50 µg/mL (≈ 82.8 µM)
- MIC ([1]; clinical strain 46 (Table S2), read-out: MIC): 50 µg/mL (≈ 82.8 µM)
- MIC ([1]; clinical strain 47 (Table S2), read-out: MIC): 50 µg/mL (≈ 82.8 µM)
- MIC ([1]; clinical strain 48 (Table S2), read-out: MIC): 50 µg/mL (≈ 82.8 µM)
- MIC ([1]; clinical strain 49 (Table S2), read-out: MIC): 50 µg/mL (≈ 82.8 µM)
- MIC ([1]; clinical strain 50 (Table S2), read-out: MIC): 50 µg/mL (≈ 82.8 µM)
- MIC ([1]; clinical strain 51 (Table S2), read-out: MIC): 50 µg/mL (≈ 82.8 µM)
- MIC ([1]; clinical strain 52 (Table S2), read-out: MIC): 50 µg/mL (≈ 82.8 µM)
- MIC ([1]; clinical strain 53 (Table S2), read-out: MIC): 50 µg/mL (≈ 82.8 µM)
- MIC ([1]; clinical strain 54 (Table S2), read-out: MIC): 50 µg/mL (≈ 82.8 µM)
- MIC ([1]; clinical strain 55 (Table S2), read-out: MIC): 50 µg/mL (≈ 82.8 µM)
- MIC ([1]; clinical strain 56 (Table S2), read-out: MIC): 50 µg/mL (≈ 82.8 µM)
- MIC ([1]; clinical strain 57 (Table S2), read-out: MIC): 50 µg/mL (≈ 82.8 µM)
- MIC ([1]; clinical strain 58 (Table S2), read-out: MIC): 50 µg/mL (≈ 82.8 µM)
- MIC ([1]; clinical strain 59 (Table S2), read-out: MIC): 50 µg/mL (≈ 82.8 µM)
- MIC ([1]; clinical strain 60 (Table S2), read-out: MIC): 50 µg/mL (≈ 82.8 µM)
- MIC ([1]; clinical strain 61 (Table S2), read-out: MIC): 50 µg/mL (≈ 82.8 µM)
- MIC ([1]; clinical strain 62 (Table S2), read-out: MIC): 50 µg/mL (≈ 82.8 µM)
- MIC ([1]; clinical strain 63 (Table S2), read-out: MIC): 50 µg/mL (≈ 82.8 µM)
- MIC ([1]; clinical strain 64 (Table S2), read-out: MIC): 50 µg/mL (≈ 82.8 µM)
- MIC ([1]; clinical strain 65 (Table S2), read-out: MIC): 6.25 µg/mL (≈ 10.4 µM)
- MIC ([1]; clinical strain 66 (Table S2), read-out: MIC): 3.12 µg/mL (≈ 5.18 µM)
- MIC ([1]; clinical strain 67 (Table S2), read-out: MIC): 50 µg/mL (≈ 82.8 µM)
- MIC ([1]; clinical strain 68 (Table S2), read-out: MIC): 50 µg/mL (≈ 82.8 µM)
- MIC ([1]; clinical strain 69 (Table S2), read-out: MIC): 50 µg/mL (≈ 82.8 µM)
- MIC ([1]; clinical strain 70 (Table S2), read-out: MIC): 50 µg/mL (≈ 82.8 µM)
- MIC ([1]; clinical strain 71 (Table S2), read-out: MIC): 50 µg/mL (≈ 82.8 µM)
- MIC ([1]; clinical strain 72 (Table S2), read-out: MIC): 50 µg/mL (≈ 82.8 µM)
- MIC ([1]; clinical strain 73 (Table S2), read-out: MIC): 50 µg/mL (≈ 82.8 µM)
- MIC ([1]; clinical strain 74 (Table S2), read-out: MIC): 50 µg/mL (≈ 82.8 µM)
- MIC ([1]; clinical strain 75 (Table S2), read-out: MIC): 50 µg/mL (≈ 82.8 µM)
- MIC ([1]; clinical strain 76 (Table S2), read-out: MIC): 50 µg/mL (≈ 82.8 µM)
- MIC ([1]; clinical strain 77 (Table S2), read-out: MIC): 0.8 µg/mL (≈ 1.33 µM)
- MIC ([1]; clinical strain 78 (Table S2), read-out: MIC): 50 µg/mL (≈ 82.8 µM)
- MIC ([1]; clinical strain 79 (Table S2), read-out: MIC): 50 µg/mL (≈ 82.8 µM)
- MIC ([1]; clinical strain 80 (Table S2), read-out: MIC): 50 µg/mL (≈ 82.8 µM)
- MIC ([1]; clinical strain 81 (Table S2), read-out: MIC): 3.12 µg/mL (≈ 5.18 µM)
- MIC ([1]; mean of MIC values against clinical MDR-SE isolates, read-out: mean MIC): 35.2 µg/mL (≈ 58.3 µM)
- MIC50 ([1]; 81 clinical strains, concentration inhibiting growth of 50% clinical isolates): 50 µg/mL (≈ 82.8 µM)
- MIC90 ([1]; 81 clinical strains, concentration inhibiting growth of 90% of clinical isolates): 50 µg/mL (≈ 82.8 µM)
- MIC [2]: 50 µg/mL (≈ 82.8 µM)
